Laboratory results from US20130123271A1, “HETEROCYCLIC COMPOUNDS, THEIR PREPARATION AND THERAPEUTIC APPLICATION” (FOVEA PHARMACEUTICALS, priority 2010, published 2013).

Target: h Src (Homo sapiens, UniProt P12931)
Experiment: LC3000 Src assay (off-chip incubation mobility-shift kinase assay, Caliper LabChip)
Assay type: biochemical
Settings: ATP at KM apparent
Procedure: The screening and profiling experiments described here were performed using Caliper Life Sciences' proprietary LabChip™ technology. Caliper LC3000 and EZ Reader II instruments are widely used throughout the drug discovery process for assay development, primary screening, selectivity screening, generation of Structure-Activity Relationships (SARs) and Mechanism of Action (MOA) studies. The LabChip™ technology is particularly well suited for enzymatic ‘targets’ such as kinases, proteases, phosphatases, histone deacetylases (HDAC), phosphodiesterases (PDE), and acyl-transferases. The key benefit of the technology is the separation and direct measurement of substrates and products, which allows for higher signal-to-noise ratios and fewer false positive/negative results. This direct measurement also allows for the identification and elimination of enzymatic activities that are not associated with the kinase reaction of interest.
The off-chip incubation mobility-shift kinase assay uses a microfluidic chip to measure the conversion of a fluorescent peptide substrate to a phosphorylated product. The reaction mixture, from a microtiter plate well, is introduced through a capillary sipper onto the chip, where the nonphosphorylated substrate and phosphorylated product are separated by electrophoresis and detected via laser-induced fluorescence. […] The phosphorylated product migrates through the chip faster than the non-phosphorylated substrate, and signals from the two forms of the peptide appear as distinct peaks. Caliper's data analysis software (HTSWA) determines peak heights, from which the ratio of product to the peak sum P/(P+S) and percent (%) conversion is calculated. This value is used to compare compound wells to control wells present on the plate, and thereby determine the % inhibition values for the compound. The formula used to calculate % inhibition is as follows, where C100% is the average % conversion of the 100% activity wells and C0% is the average % conversion of the 0% activity wells:
(1-(%conversionofsample—C0%)/(C100%−C0%))*100
Compounds were dissolved in 100% DMSO and diluted to 25× the final desired screening concentration. Serial dilutions were performed to obtain the concentrations specified for particular studies. One μl of each concentration was transferred, in duplicate, to a 384-well Greiner microtiter plate. Generally, 12 μL of enzyme buffer containing purified kinase (various suppliers), 100 mM HEPES, pH 7.5, 1 mM DTT (Calbiochem, 2333153), 10 mM MgCl2 (Sigma, M-1028) or 10 mM MnCl2 (Sigma, M-1787) (assay specific), and 0.002% Brij-35 (Sigma, B4184) was added to each well. Compound and enzyme were allowed to pre-incubate for 15 minutes. 12 μL of peptide/ATP buffer containing 100 mM HEPES, pH 7.5, 1.5 μM fluorescein-labeled peptide (specific to kinase of interest), ATP (at KM apparent, Sigma, A9187), and 0.002% Brij-35 was then added to each well to initiate the reaction. Generally, reactions were incubated for 1-1.5 hours at room temperature to obtain adequate (15-40%) conversion of peptide to phosphorylated product in the linear range of the reaction. Reactions were terminated with the addition of 45 μL of Stop Buffer (containing 20 mM EDTA). Plates were then read on the LabChip 3000 using a 12-sipper LabChip. % conversion values and % inhibition values were obtained as described and IC50 curves of compounds were generated using Graphpad Prism Version 4 or 5.01. A nonlinear curve fit using the sigmoidal dose response—variable slope fit was used to graph IC50 curves and determine IC50 values and hillslopes.

h Src, sequence (P12931 whole entry): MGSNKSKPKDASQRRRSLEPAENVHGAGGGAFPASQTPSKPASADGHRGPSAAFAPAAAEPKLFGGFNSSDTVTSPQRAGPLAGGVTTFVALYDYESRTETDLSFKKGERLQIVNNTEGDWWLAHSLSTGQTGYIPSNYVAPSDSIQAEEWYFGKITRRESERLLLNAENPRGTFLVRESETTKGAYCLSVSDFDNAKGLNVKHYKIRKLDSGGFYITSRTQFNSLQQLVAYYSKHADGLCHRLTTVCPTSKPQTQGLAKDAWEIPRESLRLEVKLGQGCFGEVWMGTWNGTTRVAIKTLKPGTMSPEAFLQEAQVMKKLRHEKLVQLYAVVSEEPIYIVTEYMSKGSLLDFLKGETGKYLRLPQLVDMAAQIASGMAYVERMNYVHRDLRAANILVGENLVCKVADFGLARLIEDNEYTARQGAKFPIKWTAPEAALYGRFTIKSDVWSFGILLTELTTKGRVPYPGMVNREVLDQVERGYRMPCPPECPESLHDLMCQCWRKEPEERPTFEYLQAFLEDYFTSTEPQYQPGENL

Structure (SMILES): Oc1ccc(Cl)c(-c2ccc3nc(Nc4cccnc4)ncc3c2)c1 [Compound 17, 4-Chloro-3-[2-(pyridin-3-ylamino)-quinazolin-6-yl]-phenol]
- IC50: 2 nM

Structure (SMILES): Oc1ccc(Cl)c(-c2ccc3nc(Nc4ccc5cc[nH]c5c4)nn3c2)c1 [Compound 18, 4-Chloro-3-[2-(1H-indol-6-ylamino)-[1,2,4]triazolo[1,5-a]pyridin-6-yl]-phenol]
- IC50: 39 nM

Structure (SMILES): Oc1ccc(Cl)c(-c2ccc3nc(Nc4ccnc(O)c4)nn3c2)c1 [Compound 19, 4-[6-(2-Chloro-5-hydroxy-phenyl)-[1,2,4]triazolo[1,5-a]pyridin-2-ylamino]-pyridin-2-ol]
- IC50: 28 nM

Structure (SMILES): COc1cc(Nc2nc3ccc(-c4cc(O)ccc4Cl)cn3n2)ccn1 [Compound 20, 4-Chloro-3-[2-(2-methoxy-pyridin-4-ylamino)-[1,2,4]triazolo[1,5-a]pyridin-6-yl]-phenol]
- IC50: 6 nM

Structure (SMILES): OCc1cncc(Nc2ncc3cc(-c4cc(O)ccc4Cl)ccc3n2)c1 [Compound 21, 4-Chloro-3-[2-(5-hydroxymethyl-pyridin-3-ylamino)-quinazolin-6-yl]-phenol]
- IC50: 0.4 nM

Structure (SMILES): Oc1ccc(Cl)c(-c2ccc3nc(Nc4cncc(OCCN5CCCC5)c4)nn3c2)c1 [Compound 26, 4-Chloro-3-{2-[5-(2-pyrrolidin-1-yl-ethoxy)-pyridin-3-ylamino]-[1,2,4]triazolo[1,5-a]pyridin-6-yl}-phenol]
- IC50: 14 nM

Structure (SMILES): COc1cc(Nc2nc3ccc(-c4cc(O)ccc4Cl)cn3n2)cc(OC)c1OC [Compound 29, 4-Chloro-3-[2-(3,4,5-trimethoxy-phenylamino)-[1,2,4]triazolo[1,5-a]pyridin-6-yl]-phenol]
- IC50: 2 nM

Structure (SMILES): OCCn1cnc2ccc(Nc3nc4ccc(-c5cc(O)ccc5Cl)cn4n3)cc21 [Compound 30, 4-Chloro-3-{2-[3-(2-hydroxy-ethyl)-3H-benzoimidazol-5-ylamino]-[1,2,4]triazolo[1,5-a]pyridin-6-yl}-phenol]
- IC50: 7 nM

Structure (SMILES): Oc1ccc(Cl)c(-c2ccn3nc(Nc4cccnc4)nc3c2)c1 [Compound 31, 4-Chloro-3-[2-(pyridin-3-ylamino)-[1,2,4]triazolo[1,5-a]pyridin-7-yl]-phenol]
- IC50: 69 nM

Structure (SMILES): Oc1ccc(Cl)c(-c2ccc3nc(Nc4ccnc(OCCN5CCCC5)c4)nn3c2)c1 [Compound 33, 4-Chloro-3-{2-[2-(2-pyrrolidin-1-yl-ethoxy)-pyridin-4-ylamino]-[1,2,4]triazolo[1,5-a]pyridin-6-yl}-phenol]
- IC50: 29 nM

Structure (SMILES): OCc1cc(CO)cc(Nc2nc3cc(-c4cc(O)ccc4Cl)ccn3n2)c1 [Compound 34, 3-[2-(3,5-Bis-hydroxymethyl-phenylamino)-[1,2,4]triazolo[1,5-a]pyridin-7-yl]-4-chloro-phenol]
- IC50: 9 nM

Structure (SMILES): OCc1ccc(Nc2nc3ccc(-c4cc(O)ccc4Cl)cn3n2)cc1CO [Compound 35, 3-[2-(3,4-Bis-hydroxymethyl-phenylamino)-[1,2,4]triazolo[1,5-a]pyridin-6-yI]-4-chloro-phenol]
- IC50: 34 nM

Structure (SMILES): COc1cc(Nc2ncc3cc(-c4cc(O)ccc4Cl)ccc3n2)cc(OC)c1OC [Compound 36, 4-Chloro-3-[2-(3,4,5-trimethoxy-phenylamino)-quinazolin-6-y]-phenol]
- IC50: 0.5 nM

Structure (SMILES): OCCN1CCN(c2cc(Nc3nc4ccc(-c5cc(O)ccc5Cl)cn4n3)ccn2)CC1 [Compound 38, 4-Chloro-3-(2-{2-[4-(2-hydroxy-ethyl)-piperazin-1-yl]-pyridin-4-ylamino}-[1,2,4]triazolo[1,5-a]pyridin-6-yl)-phenol]
- IC50: 13 nM

Structure (SMILES): COc1cc2nc(Nc3ccc(OCCN4CCCC4)cc3)nn2cc1-c1cc(O)ccc1Cl [Compound 39, 4-Chloro-3-{7-methoxy-2-[4-(2-pyrrolidin-1-yl-ethoxy)-phenylamino]-[1,2,4]triazolo[1,5-a]pyridin-6-yl}-phenol]
- IC50: 69 nM

Structure (SMILES): COc1ccc(Nc2ncc3cc(-c4cc(O)ccc4Cl)ccc3n2)cn1 [Compound 40, 4-Chloro-3-[2-(6-methoxy-pyridin-3-ylamino)-quinazolin-6-yl]-phenol]
- IC50: 10 nM

Structure (SMILES): [O-][N+]1(CCOc2ccc(Nc3nc4ccc(-c5cc(O)ccc5Cl)cn4n3)cc2)CCCC1 [Compound 41, 4-Chloro-3-(2-{4-[2-(1-oxy-pyrrolidin-1-yl)-ethoxy]-phenylamino}-[1,2,4]triazolo[1,5-a]pyridin-6-yl)-phenol]
- IC50: 55 nM

Structure (SMILES): Oc1ccc(Cl)c(-c2ccc3nc(Nc4ccc5cc[nH]c5c4)ncc3c2)c1 [Compound 42, 4-Chloro-3-[2-(1 H-indol-6-ylamino)-quinazolin-6-yl]-phenol]
- IC50: 100 nM

Structure (SMILES): O=C1CCCN1CCOc1ccc(Nc2nc3ccc(-c4cc(O)ccc4Cl)cn3n2)cn1 [Compound 44, 1-(2-{5-[6-(2-Chloro-5-hydroxy-phenyl)-[1,2,4]triazolo[1,5-a]pyridin-2-ylamino]-pyridin-2-yloxy}-ethyl)-pyrrolidin-2-one]
- IC50: 57 nM

Structure (SMILES): OCCN1CCN(c2cc(CO)cc(Nc3nc4ccc(-c5cc(O)ccc5Cl)cn4n3)c2)CC1 [Compound 47, 4-Chloro-3-(2-{3-[4-(2-hydroxy-ethyl)-piperazin-1-yl]-5-hydroxymethyl-phenylamino}-[1,2,4]triazolo[1,5-a]pyridin-6-yl)-phenol]
- IC50: 1 nM

Structure (SMILES): Cc1cc(Nc2ncc3cc(-c4cc(OC(=O)c5ccccc5)ccc4Cl)ccc3n2)cc(N2CCN(CCO)CC2)c1 [Compound 49, Benzoic acid 4-chloro-3-(2-{3-[4-(2-hydroxy-ethyl)-piperazin-1-yl]-5-methyl-phenylamino}-quinazolin-6-yl)-phenyl ester]
- IC50: 11 nM

Structure (SMILES): OCCN1CCN(c2cc(CO)cc(Nc3ncc4cc(-c5cc(O)ccc5Cl)ccc4n3)c2)CC1 [Compound 50, 4-Chloro-3-(2-{3-[4-(2-hydroxy-ethyl)-piperazin-1-yl]-5-hydroxymethyl-phenylamino}-quinazolin-6-yl)-phenol]
- IC50: 0.2 nM

Structure (SMILES): Oc1ccc(Cl)c(-c2ccc3nc(Nc4ccncc4)nn3c2)c1 [compound 1, 4-Chloro-3-[2-(pyridin-4-ylamino)-[1,2,4]triazolo[1,5-a]pyridin-6-yl]-phenol]
- IC50: 73 nM

Structure (SMILES): Oc1ccc(Cl)c(-c2ccc3nc(Nc4cccnc4)nn3c2)c1 [compound 2, 4-Chloro-3-[2-(pyridin-3-ylamino)-[1,2,4]triazolo[1,5-a]pyridin-6-yl]-phenol]
- IC50: 120 nM

Structure (SMILES): Oc1ccc(Cl)c(-c2ccc3nc(Nc4cncnc4)nn3c2)c1 [compound 3, 4-Chloro-3-[2-(pyrimidin-5-ylamino)-[1,2,4]triazolo[1,5-a]pyridin-6-yl]-phenol]
- IC50: 150 nM

Structure (SMILES): OCc1cncc(Nc2nc3ccc(-c4cc(O)ccc4Cl)cn3n2)c1 [compound 4, 4-Chloro-3-[2-(5-hydroxymethyl-pyridin-3-ylamino)-[1,2,4]triazolo[1,5-a]pyridin-6-yl]-phenol]
- IC50: 39 nM

Structure (SMILES): COc1ccc(Nc2nc3ccc(-c4cc(O)ccc4Cl)cn3n2)cn1 [compound 7, 4-Chloro-3-[2-(6-methoxy-pyridin-3-ylamino)-[1,2,4]triazolo[1,5-a]pyridin-6-yl]-phenol]
- IC50: 80 nM

Structure (SMILES): Oc1ccc(Cl)c(-c2ccc3nc(Nc4ccc(OCCN5CCCC5)cn4)nn3c2)c1 [compound 8, 4-Chloro-3-{2-[5-(2-pyrrolidin-1-yl-ethoxy)-pyridin-2-ylamino]-[1,2,4]triazolo[1,5-a]pyridin-6-yl}-phenol]
- IC50: 100 nM

Structure (SMILES): Oc1ccc(Cl)c(-c2ccc3nc(Nc4ccccn4)nn3c2)c1 [compound 12, 4-Chloro-3-[2-(pyridin-2-ylamino)-[1,2,4]triazolo[1,5-a]pyridin-6-yl]-phenol]
- IC50: 170 nM

Structure (SMILES): OCc1ccc(Nc2nc3ccc(-c4cc(O)ccc4Cl)cn3n2)cn1 [compound 14, 4-Chloro-3-[2-(6-hydroxymethyl-pyridin-3-ylamino)-[1,2,4]triazolo[1,5-a]pyridin-6-yl]-phenol]
- IC50: 47 nM
